One experiment has as its system Cryptococcus neoformans. Description: Cryptococcus growth inhibition by alamar blue – cell lysis, cherry-picks, replicate tests, mechanism study for C. neoformans antifungal project, dose response (AID 686999). Format: functional, organism-based.
The next experiment has as its target T1, Exodeoxyribonuclease V (Escherichia coli (strain K12), UniProt P04993+P07648+P08394).
T1 sequence (P04993 whole entry): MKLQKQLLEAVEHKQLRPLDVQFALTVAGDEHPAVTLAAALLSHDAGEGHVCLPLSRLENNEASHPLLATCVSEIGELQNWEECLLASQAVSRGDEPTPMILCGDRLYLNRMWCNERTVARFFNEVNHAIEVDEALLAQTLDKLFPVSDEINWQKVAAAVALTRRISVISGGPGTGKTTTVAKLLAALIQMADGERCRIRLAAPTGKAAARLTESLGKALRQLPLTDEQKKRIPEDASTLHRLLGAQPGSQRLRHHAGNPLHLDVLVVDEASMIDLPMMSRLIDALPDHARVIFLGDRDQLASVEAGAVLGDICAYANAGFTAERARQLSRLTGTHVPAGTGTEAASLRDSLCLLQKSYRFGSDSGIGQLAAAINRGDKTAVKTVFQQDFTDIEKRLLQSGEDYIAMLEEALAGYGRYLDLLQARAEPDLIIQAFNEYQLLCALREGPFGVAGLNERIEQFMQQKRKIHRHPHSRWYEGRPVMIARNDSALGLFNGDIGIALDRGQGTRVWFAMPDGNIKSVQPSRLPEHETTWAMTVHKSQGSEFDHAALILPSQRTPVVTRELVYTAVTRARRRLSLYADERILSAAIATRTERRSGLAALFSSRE
T1 sequence (P07648 whole entry): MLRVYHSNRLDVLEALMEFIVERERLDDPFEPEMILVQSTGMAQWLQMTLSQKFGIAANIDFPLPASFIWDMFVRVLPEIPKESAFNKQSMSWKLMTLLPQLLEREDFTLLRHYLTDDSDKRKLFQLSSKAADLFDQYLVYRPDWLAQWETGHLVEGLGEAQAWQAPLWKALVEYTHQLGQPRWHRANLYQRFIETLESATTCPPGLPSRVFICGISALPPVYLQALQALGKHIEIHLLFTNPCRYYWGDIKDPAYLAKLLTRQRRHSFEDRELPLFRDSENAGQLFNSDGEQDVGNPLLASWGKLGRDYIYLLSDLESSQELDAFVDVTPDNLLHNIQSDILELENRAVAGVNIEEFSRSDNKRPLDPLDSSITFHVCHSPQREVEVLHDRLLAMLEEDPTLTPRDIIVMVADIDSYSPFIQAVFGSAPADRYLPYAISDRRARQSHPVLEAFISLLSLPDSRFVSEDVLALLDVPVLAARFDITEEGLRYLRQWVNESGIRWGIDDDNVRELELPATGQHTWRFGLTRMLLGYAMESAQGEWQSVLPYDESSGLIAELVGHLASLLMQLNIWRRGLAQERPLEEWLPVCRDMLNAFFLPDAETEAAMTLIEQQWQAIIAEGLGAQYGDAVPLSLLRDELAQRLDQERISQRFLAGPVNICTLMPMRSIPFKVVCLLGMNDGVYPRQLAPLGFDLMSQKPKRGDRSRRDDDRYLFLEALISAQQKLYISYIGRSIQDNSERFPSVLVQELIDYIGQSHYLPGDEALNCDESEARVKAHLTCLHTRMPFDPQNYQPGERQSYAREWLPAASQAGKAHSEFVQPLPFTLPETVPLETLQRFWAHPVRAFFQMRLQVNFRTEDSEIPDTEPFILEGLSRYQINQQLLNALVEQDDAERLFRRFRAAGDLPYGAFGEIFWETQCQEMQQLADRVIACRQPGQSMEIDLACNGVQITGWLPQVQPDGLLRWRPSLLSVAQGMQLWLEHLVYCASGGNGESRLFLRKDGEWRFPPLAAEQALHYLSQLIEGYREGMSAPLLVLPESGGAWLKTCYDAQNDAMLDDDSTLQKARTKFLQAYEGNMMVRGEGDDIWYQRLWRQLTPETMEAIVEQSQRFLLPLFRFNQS
T1 sequence (P08394 whole entry): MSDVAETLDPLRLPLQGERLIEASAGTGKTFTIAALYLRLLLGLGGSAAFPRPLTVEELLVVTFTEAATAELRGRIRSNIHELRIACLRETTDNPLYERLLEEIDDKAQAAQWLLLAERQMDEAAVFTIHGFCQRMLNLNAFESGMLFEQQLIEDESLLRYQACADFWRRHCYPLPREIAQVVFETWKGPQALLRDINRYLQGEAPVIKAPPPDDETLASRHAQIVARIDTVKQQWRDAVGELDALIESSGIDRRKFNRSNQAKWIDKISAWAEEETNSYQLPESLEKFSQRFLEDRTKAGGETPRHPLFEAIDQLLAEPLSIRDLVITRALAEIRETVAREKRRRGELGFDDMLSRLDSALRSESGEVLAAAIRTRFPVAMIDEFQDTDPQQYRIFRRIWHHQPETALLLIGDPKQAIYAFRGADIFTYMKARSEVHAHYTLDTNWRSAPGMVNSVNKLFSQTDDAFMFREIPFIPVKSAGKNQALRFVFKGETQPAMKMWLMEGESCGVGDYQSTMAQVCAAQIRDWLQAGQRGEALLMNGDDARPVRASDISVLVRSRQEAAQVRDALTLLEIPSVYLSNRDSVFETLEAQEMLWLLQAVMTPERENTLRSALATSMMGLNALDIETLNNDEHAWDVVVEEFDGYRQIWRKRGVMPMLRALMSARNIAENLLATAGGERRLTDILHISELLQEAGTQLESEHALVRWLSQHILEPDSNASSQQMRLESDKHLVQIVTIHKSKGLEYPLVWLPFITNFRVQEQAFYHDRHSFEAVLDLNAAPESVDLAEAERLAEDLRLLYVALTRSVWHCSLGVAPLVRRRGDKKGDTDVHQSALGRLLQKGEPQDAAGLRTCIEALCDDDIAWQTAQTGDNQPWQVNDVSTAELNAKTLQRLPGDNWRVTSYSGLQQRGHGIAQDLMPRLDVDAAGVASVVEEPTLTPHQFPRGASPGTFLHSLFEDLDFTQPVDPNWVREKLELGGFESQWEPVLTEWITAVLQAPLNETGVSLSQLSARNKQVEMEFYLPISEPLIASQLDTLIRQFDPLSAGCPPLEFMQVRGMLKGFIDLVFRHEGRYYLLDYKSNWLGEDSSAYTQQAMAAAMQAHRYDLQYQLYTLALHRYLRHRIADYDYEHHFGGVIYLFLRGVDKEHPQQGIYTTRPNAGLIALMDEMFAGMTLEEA
Description: RecBCD inhibition via phage-restricted bacterial growth – absorbance, V66 E. coli, mutant T4 phage, counter-screen for AddAB inhibitor project, dose response (AID 492957). It is filed as functional, cell-based, Escherichia coli str. K-12 substr. MG1655.

The next experiment concerns the target Troponin, cardiac muscle (Homo sapiens, UniProt P19429+P45379+P63316). Description: compounds desensitizing RTF to calcium – biochemical, fluorescence, cardiac regulated thin filaments, triplicate IC50, dose response (AID 504742). Format: protein-complex assay.

The source made the active and inactive calls.

In the case of `CCOC(=O)c1c(-c2ccc(-c3ccccc3)cc2)csc1NC(=O)CNCCN(C)C`, in the experiment with Cryptococcus neoformans, the AC50 is 14.7 µM (active).

`COc1cc(-c2nnc(SCc3cc(=O)oc4cc(O)c(O)cc34)o2)cc(OC)c1OC`: the IC50 at Exodeoxyribonuclease V was > 119 µM (inactive); at Troponin, cardiac muscle, > 2.65 µM (active).

Source of the values: ChEMBL document CHEMBL1201862, “PubChem BioAssay data set” (2004).
